Results on 4 compounds are retold here after PMC6412891, “Synthesis and Biological Evaluation of Novel Thiazolyl-Coumarin Derivatives as Potent Histone Deacetylase Inhibitors with Antifibrotic Activity” (Molecules, 2019).

SMILES strings stand for the structures.

The target in one test is T1, HDAC6 human recombinant (Homo sapiens, UniProt Q9UBN7).
T1 construct: purchased Enzo Life Science BML-AK516
T1 sequence (Q9UBN7 1-1215): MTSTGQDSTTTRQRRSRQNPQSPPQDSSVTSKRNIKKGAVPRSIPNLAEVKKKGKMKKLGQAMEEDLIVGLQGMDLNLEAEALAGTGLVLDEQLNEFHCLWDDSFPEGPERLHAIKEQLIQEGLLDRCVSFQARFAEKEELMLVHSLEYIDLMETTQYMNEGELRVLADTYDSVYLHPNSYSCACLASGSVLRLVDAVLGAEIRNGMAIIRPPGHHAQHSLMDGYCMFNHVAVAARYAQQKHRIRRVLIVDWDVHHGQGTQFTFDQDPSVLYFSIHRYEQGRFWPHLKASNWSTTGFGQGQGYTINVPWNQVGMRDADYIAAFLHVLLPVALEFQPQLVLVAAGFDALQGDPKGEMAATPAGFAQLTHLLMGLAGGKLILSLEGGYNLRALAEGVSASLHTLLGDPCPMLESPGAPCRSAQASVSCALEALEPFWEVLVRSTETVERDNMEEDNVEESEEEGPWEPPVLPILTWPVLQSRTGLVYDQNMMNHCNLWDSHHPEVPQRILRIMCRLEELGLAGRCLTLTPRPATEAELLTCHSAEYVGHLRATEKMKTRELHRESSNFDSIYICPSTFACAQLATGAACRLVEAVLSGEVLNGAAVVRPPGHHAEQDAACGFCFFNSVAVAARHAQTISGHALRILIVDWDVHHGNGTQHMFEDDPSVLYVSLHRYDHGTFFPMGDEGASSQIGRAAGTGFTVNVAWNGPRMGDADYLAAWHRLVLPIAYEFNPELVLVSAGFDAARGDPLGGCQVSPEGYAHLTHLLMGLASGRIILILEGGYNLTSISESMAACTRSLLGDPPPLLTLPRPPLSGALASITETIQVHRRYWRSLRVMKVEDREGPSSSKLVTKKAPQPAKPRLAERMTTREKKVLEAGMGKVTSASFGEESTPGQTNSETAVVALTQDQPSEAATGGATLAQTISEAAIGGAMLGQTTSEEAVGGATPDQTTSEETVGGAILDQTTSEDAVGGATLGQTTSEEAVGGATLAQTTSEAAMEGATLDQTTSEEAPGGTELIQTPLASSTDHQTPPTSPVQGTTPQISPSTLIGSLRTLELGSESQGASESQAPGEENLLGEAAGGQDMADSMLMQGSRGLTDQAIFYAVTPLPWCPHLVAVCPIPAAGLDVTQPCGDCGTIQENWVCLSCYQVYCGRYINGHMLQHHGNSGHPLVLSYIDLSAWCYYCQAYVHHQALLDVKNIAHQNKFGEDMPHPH
Nature of the test: HDAC6 inhibitory activity, fluorometric kit. As to conditions: Class II. Type of test: biochemical.

In the next test the test system is α-SMA expression in CFs. Kind of test: α-SMA expression levels in cardiac fibroblasts, western blot. Type of test: cell-based, rat. As to conditions: for α-SMA expression levels: 5 μM for 48 h, absence of TGF-β1, vs. control; for α-SMA expression levels induced by TGF-β1: derivatives 5 μM (TSA 0.1 μM) for 48 h in presence of TGF-β1. Here is the method: For this purpose, a fixed concentration of 5a, 6a, 7a and 8a derivatives in the presence/absence of TGF–β1 (a strong inducer of CFs–to–CMFs differentiation), was studied, and α–SMA expression levels were measured by using the western blot technique. TSA was used as a control and also for comparative purposes.
For the analysis of the protein expression of histone H4–acetylated (ac–H4) and total H4 histone, a number of 1 × 10^6 of CFs seeded in 60 mm plates was used, which were incubated with the inhibitory compounds at a concentration of 10 μM, in the absence/presence of TGF–β1(5ng/mL) for 4 h. Subsequently, total histones were extracted by the technique of saline precipitation (high salt extraction). Briefly, CFs were scraped from the plates with 1 mL of cold PBS transferring their contents to Eppendorf tubes to be centrifuged for 60 s at 1500 rpm at 4 °C and re–suspended in 400 μL of cold buffer A (10 mM 4-(2-hydroxyethyl)-1-piperazineethanesulfonic acid-KOH (HEPES-KOH) adjusted to pH 7.9, 1.5 mM MgCl2, 10 mM KCl, 0.5 mM dithiothreitol and 0.2 mM phenylmethylsulfonyl fluoride (PMSF). The suspension is left on ice for 10 min and then placed in the vortex for 10 s. The samples were centrifuged for 60 s, subsequently discarding the supernatant fraction. The obtained pellet was re-suspended in 60 μL of cold C buffer (20 mM HEPES-KOH adjusted to pH 7.9, 25% glycerol, 420 mM NaCl, 1.5 mM MgCl2, 0.2 mM EDTA, dithiothreitol 0.5 mM and 0.2 mM PMSF) and placed on ice for 20 min for saline precipitation. Cell debris is removed by centrifugation for 120 s at 1500 rpm at 4 °C and the supernatant fraction, which contains the DNA binding proteins, is stored at minus 20 °C. For the analysis of α–SMA and procollagen type I expression levels, 3×10^5 CFs seeded in 35 mm plates were used, which were incubated together with inhibitor compounds at a 5 μM, in the absence/presence of TGF–β1 (5 ng/mL) for 48 h. To obtain the total proteins, the CFs were washed three times with cold PBS, then scraped and lysed with 50 μL of radio inmuno-precipitation assay (RIPA) lysis buffer (10 mM Tris–HCl pH 7.2, 5 mM EDTA, 150 mM NaCl, Triton X–100 1%, sodium dodecyl sulfate (SDS) 0.1%, deoxycholate 1%, leupeptin 2 μg/mL, aprotinin 10mM, PMSF 1mM and Na3VO4 100μM). The solution was centrifuged for 15 min at 10,000 rpm and at 4 °C. The supernatant fraction containing the total proteins was stored at minus 20 °C. The concentration of proteins obtained was determined by spectrophotometry at 570 nm, using the Bradford method (Bio-Rad, Hercules, CA, USA).
CFs proteins (25 μg), were subjected to 10% sodium dodecyl sulfate-polyacrylamide gel electrophoresis and finally transferred onto a nitrocellulose membrane (Millipore, Billerica, MA, USA). The membrane was washed twice with tris–buffered saline solution containing 0.1% Tween 20 (TBST). After being blocked with TBST containing 5% nonfat milk for 40 min, the membrane was incubated with primary antibodies in TBST/1% nonfat milk at 4 °C overnight. The membrane was washed three times with TBST for a total of 15 min and then incubated with primary antibodies (ac–H4, H4 total, α-SMA, procollagen type I and GAPDH). Then the membrane was incubated with goat anti–rabbit or anti-mouse IgG antibodies conjugated with horseradish (diluted 1:1000) for 1 h at room temperature. Signals were developed with ECL reagents and exposure to photographic film.
Figure 4 CTz non–substituted inhibit α-SMA expression in cardiac fibroblasts. (A) CFs were exposed to 5a, 6a, 7a and 8a at 5 μM for 48 h. […] (B) CFs were exposed to 5a, 6a, 7a and 8a at 5 μM for 48 h in presence of TGF–β1 ([…]). α-SMA expression levels were measured by western blot. GAPDH was used as control load.
(In general: A western blot detects proteins with antibodies after separation by electrophoresis.)

A further test concerns the target T2, HDAC1 human recombinant (Homo sapiens, UniProt Q13547).
T2 construct: purchased Enzo Life Science BML-AK511
Nature of the test: HDAC1 inhibitory activity, fluorometric kit. Type of test: biochemical. As to conditions: Class I.

T2 sequence (Q13547 whole entry): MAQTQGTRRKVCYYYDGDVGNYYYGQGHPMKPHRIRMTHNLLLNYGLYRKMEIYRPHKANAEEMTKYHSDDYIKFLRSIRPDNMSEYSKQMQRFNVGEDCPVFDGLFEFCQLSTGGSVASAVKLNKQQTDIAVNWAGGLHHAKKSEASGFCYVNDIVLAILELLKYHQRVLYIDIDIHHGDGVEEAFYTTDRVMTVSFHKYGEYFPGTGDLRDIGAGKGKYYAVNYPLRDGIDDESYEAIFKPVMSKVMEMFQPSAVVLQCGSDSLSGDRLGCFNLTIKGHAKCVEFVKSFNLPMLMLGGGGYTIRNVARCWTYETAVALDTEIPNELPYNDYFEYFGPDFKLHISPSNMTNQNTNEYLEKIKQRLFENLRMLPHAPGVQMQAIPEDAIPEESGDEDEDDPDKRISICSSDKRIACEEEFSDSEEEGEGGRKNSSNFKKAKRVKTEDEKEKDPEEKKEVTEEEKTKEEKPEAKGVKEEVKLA

As a reminder, the IC50 is the point on the concentration scale where inhibition reaches its midpoint. `O=C(CCCCC1CCSS1)Nc1nc(-c2cc3ccccc3oc2=O)cs1` (stereo not drawn) [Compound 5a, 5-[1,2]-Dithiolan-3-yl-N-[4-(2-oxo-2H-chromen-3-yl)-thiazol-2-yl]-pentanamide]: the 50% inhibitory concentration (IC50) on HDAC6 human recombinant was 153 ± 5.3 nM. Moreover, in the test with α-SMA expression in CFs, the α-SMA expression levels entry is listed as “decreased in a statistically significant manner” and the “α-SMA expression levels induced by TGF-β1” value is “decrease close to control levels”. The half-inhibitory concentration (IC50) at HDAC1 human recombinant turned out to be 60.4 ± 1.7 nM.

Take `O=C(Nc1nc(-c2cc3ccccc3oc2=O)cs1)c1ccc(O)c(O)c1` [Compound 6a]: the IC50 on HDAC6 human recombinant stood at 276 ± 20.9 nM; on HDAC1 human recombinant, 423 ± 30.2 nM. Further, the α-SMA expression levels entry in the test with α-SMA expression in CFs is “decreased in a statistically significant manner”. Also, in the test on α-SMA expression in CFs, the “α-SMA expression levels induced by TGF-β1” value is listed as “decrease close to control levels”.

Consider `O=C(O)CCCCC(=O)Nc1nc(-c2cc3ccccc3oc2=O)cs1` [Compound 7a], for which the figures for the IC50 at HDAC6 human recombinant and at HDAC1 human recombinant were 5590 ± 184 nM and 7690 ± 328 nM, respectively. Besides, in the test with α-SMA expression in CFs, the α-SMA expression levels entry is reported as “had no effect”.

Regarding `O=C(CCCCC(=O)Nc1nc(-c2cc3ccccc3oc2=O)cs1)NO` [Compound 8a, 5-[4-(2-Oxo-2H-chromen-3-yl)-thiazol-2-yl-carbamoyl]-N-hydroxypentanamide], the half-inhibitory concentration (IC50) on HDAC6 human recombinant stood at 98.3 ± 3.5 nM. Also, in the test with α-SMA expression in CFs, the α-SMA expression levels entry was “decreased in a statistically significant manner” and the “α-SMA expression levels induced by TGF-β1” value is listed as “decrease close to control levels”. Besides, the IC50 on HDAC1 human recombinant is 50.6 ± 2.1 nM.
